The values below come from patent US12630547B2, “RAS protein degraders, pharmaceutical compositions thereof, and their therapeutic applications” (BioTheryX, Inc., priority 2019, dated 2026).

Molecules are shown by their SMILES.

The test system of one assay is H23 cells. Kind of assay: Cell viability assay (CELLTITER-GLO), H23 cells. Format: cell-based. As to conditions: Table 4; 3 days. As for the experimental part:
(§1) MOLM-13 cells, MV-4-11 cells, H23, and H358 cells were independently cultured in RPMI 1640 media supplemented with 10% fetal bovine serum, streptomycin and penicillin. The cells were plated in white walled 96-well plates at 4,000 cells/well. The cells were incubated in DMSO (control) or a compound for 3 days at 37° C. under 5% CO2. A CELLTITER-GLO® reagent (100 μL) was then added to each well. After a 10 min incubation with shaking, luminescence was measured using an ENVISION® multimode plate reader.
(§2) IC50 values are summarized in Table 4, where “A” represents an IC50 value of no greater than 1 μM, “B” represents an IC50 value of greater than 1 μM and no greater than 5 μM, “C” represents an IC50 value of greater than 5 μM and no greater than 10 μM, and “D” represents an IC50 value of greater than 10 μM.
For orientation: In ATP-based viability assays light output follows the ATP content of the culture.
Consider `C=CC(=O)N1CCN(c2ncnc3c(F)c(-c4cc(OCCOCCOCCC(=O)NCCNc5cccc6c5CN(C5CCC(=O)NC5=O)C6=O)ccc4F)c(Cl)cc23)CC1` [Compound 39, 3-(2-(2-((R)-3-(4-(4-Acryloylpiperazin-1-yl)-6-chloro-8-fluoroquinazolin-7-yl)-4-fluorophenoxy)ethoxy)ethoxy)-N-(2-((2-(2,6-dioxopiperidin-3-yl)-1-oxoisoindolin-4-yl)amino)ethyl)propanamide], for which the “Inhibition of H23 cells, IC50 (class)” value is reported as “D′”.

On to `C=CC(=O)N1CCN(c2nc(OCCOCCOCCOCCNc3cccc4c3C(=O)N(C3CCC(=O)NC3=O)C4=O)nc3c2CCN(c2cccc4ccccc24)C3)C[C@H]1C` (stereo partly drawn) [Compound 47, 4-((2-(2-(2-(2-((4-((R)-4-Acryloyl-3-methylpiperazin-1-yl)-7-(naphthalen-1-yl)-5,6,7,8-tetrahydropyrido[3,4-d]pyrimidin-2-yl)oxy)ethoxy)ethoxy)ethoxy)ethyl)amino)-2-(2,6-dioxopiperidin-3-yl)isoindoline-1,3-dione], for which the “Inhibition of H23 cells, IC50 (class)” value is listed as “B′”.

In a further assay the test system is MOLM-13 cells. Kind of assay: Cell viability assay (CELLTITER-GLO), MOLM-13 cells. Format: cell-based. As to conditions: Homo sapiens, MOLM-13, 72 h; Table 2; compound at 10 μM, 3 days; read-out: Effect on MOLM-13 cell viability (% DMSO). The method, then: as §1
In Tables 1 and 2, each compound was tested at 10 μM; and in Table 3, each compound was tested at 1 μM. In Tables 1 to 3, the cell viability values as % DMSO are reported as “A,” “B,” “C,” or “D;” where “A” represents a % viability value of less than 10%; “B” represents a % viability value of no less than 10% and less than 25%; “C” represents a % viability value of no less than 25% and less than 50%; and “D” represents a % viability value of no less than 50%. Compound A is […]
The viability is a per cent measure of how many cells are alive, often set against a control. In the case of `C=CC(=O)N1CC(c2nc3ccc(-c4cc(O)cc5ccccc45)cc3c(=O)n2CC(=O)NCCOCCOCCOCCNc2cccc3c2C(=O)N(C2CCC(=O)NC2=O)C3=O)C1` (stereo not shown) [Compound 17, 2-(2-(1-Acryloylazetidin-3-yl)-6-(3-hydroxynaphthalen-1-yl)-4-oxoquinazolin-3(4H)-yl)-N-(2-(2-(2-(2-((2-(2,6-dioxopiperidin-3-yl)-1,3-dioxoisoindolin-4-yl)amino)ethoxy)ethoxy)ethoxy)-ethyl)acetamide], the viability at 10 µM is no less than 50%.

For `C=CC(=O)N1CC(c2nc3ccc(-c4cc(O)cc5ccccc45)cc3c(=O)n2CCNCc2ccc(OCc3scc4c3CN(C3CCC(=O)NC3=O)C4=O)cc2)C1` (stereo not shown) [Compound 18, 3-(1-((4-(((2-(2-(1-Acryloylazetidin-3-yl)-6-(3-hydroxynaphthalen-1-yl)-4-oxoquinazolin-3(4H)-yl)ethyl)amino)methyl)phenoxy)methyl)-4-oxo-4H-thieno[3,4-c]pyrrol-5(6H)-yl)piperidine-2,6-dione], the viability at 10 µM was no less than 50%.

As for `C=CC(=O)N1CC(N2Cc3ccc(-c4cc(O)cc5ccccc45)cc3N(CCCCNCc3ccc(OCc4scc5c4CN(C4CCC(=O)NC4=O)C5=O)cc3)C2=O)C1` (stereo not shown) [Compound 19, 3-(1-((4-(((4-(3-(1-Acryloylazetidin-3-yl)-7-(3-hydroxynaphthalen-1-yl)-2-oxo-3,4-dihydroquinazolin-1(2H)-yl)butyl)amino)methyl)phenoxy)methyl)-4-oxo-4H-thieno[3,4-c]pyrrol-5(6H)-yl)piperidine-2,6-dione], the viability at 10 µM was no less than 50%.

Consider `C=CC(=O)N1CC(c2nc3ccc(-c4cc(O)cc5ccccc45)cc3c(=O)n2CCOCCNCc2ccc(OCc3scc4c3CN(C3CCC(=O)NC3=O)C4=O)cc2)C1` (stereo not shown) [Compound 21, 3-(1-((4-(((2-(2-(2-(1-Acryloylazetidin-3-yl)-6-(3-hydroxynaphthalen-1-yl)-4-oxoquinazolin-3(4H)-yl)ethoxy)ethyl)amino)methyl)phenoxy)methyl)-4-oxo-4H-thieno[3,4-c]pyrrol-5(6H)-yl)piperidine-2,6-dione], for which the viability at 10 µM is no less than 50%.

Turning to `CCC(=O)N1CCN(c2ncnc3c(F)c(-c4c(F)cccc4OCCCCCCCNCc4ccc(OCc5scc6c5CN([C@H]5CCC(=O)NC5=O)C6=O)cc4)c(Cl)cc23)CC1` [Compound 25, (3S)-3-(1-((4-(((7-(2-(6-Chloro-8-fluoro-4-(4-propionylpiperazin-1-yl)quinazolin-7-yl)-3-fluorophenoxy)heptyl)amino)methyl)phenoxy)methyl)-4-oxo-4H-thieno[3,4-c]pyrrol-5(6H)-yl)piperidine-2,6-dione], the viability at 10 µM was less than 10%.

For the compound `CCC(=O)N1CC(c2nc3ccc(-c4cc(O)cc5ccccc45)cc3c(=O)n2CCOCCNCc2ccc(OCc3scc4c3CN(C3CCC(=O)NC3=O)C4=O)cc2)C1` (stereo not shown) [Compound 26, 3-(1-((4-(((2-(2-(6-(3-Hydroxynaphthalen-1-yl)-4-oxo-2-(1-propionylazetidin-3-yl)quinazolin-3(4H)-yl)ethoxy)ethyl)amino)methyl)phenoxy)methyl)-4-oxo-4H-thieno[3,4-c]pyrrol-5(6H)-yl)piperidine-2,6-dione], the viability at 10 µM was no less than 50%.

Turning to `C=CC(=O)N1CCN(c2ncnc3c(F)c(-c4c(F)cccc4OCCCCCCCNC(=O)NCc4scc5c4CN(C4CCC(=O)NC4=O)C5=O)c(Cl)cc23)CC1` (stereo not shown) [Compound 27, 1-(7-(2-(4-(4-Acryloylpiperazin-1-yl)-6-chloro-8-fluoroquinazolin-7-yl)-3-fluorophenoxy)heptyl)-3-((5-(2,6-dioxopiperidin-3-yl)-4-oxo-5,6-dihydro-4H-thieno[3,4-c]pyrrol-1-yl)methyl)urea], the viability at 10 µM is less than 10%.

On to `CCC(=O)N1CCN(c2ncnc3c(F)c(-c4c(F)cccc4OCCCCCCCNC(=O)NCc4scc5c4CN(C4CCC(=O)NC4=O)C5=O)c(Cl)cc23)CC1` (stereo not shown) [Compound 28, 1-(7-(2-(6-Chloro-8-fluoro-4-(4-propionylpiperazin-1-yl)quinazolin-7-yl)-3-fluorophenoxy)heptyl)-3-((5-(2,6-dioxopiperidin-3-yl)-4-oxo-5,6-dihydro-4H-thieno[3,4-c]pyrrol-1-yl)methyl)urea], for which the viability at 10 µM is less than 10%.

In the case of `C=CC(=O)N1CCN(c2ncnc3c(F)c(-c4c(F)cccc4OCCOCCOCCC(=O)NCCNc4cccc5c4CN(C4CCC(=O)NC4=O)C5=O)c(Cl)cc23)CC1` (stereo not shown) [Compound 29, 3-(2-(2-(2-(4-(4-Acryloylpiperazin-1-yl)-6-chloro-8-fluoroquinazolin-7-yl)-3-fluorophenoxy)ethoxy)ethoxy)-N-(2-((2-(2,6-dioxopiperidin-3-yl)-1-oxoisoindolin-4-yl)amino)ethyl)propanamide], the viability at 10 µM was less than 10%.

`CCC(=O)N1CCN(c2ncnc3c(F)c(-c4c(F)cccc4OCCOCCOCCC(=O)NCCNc4cccc5c4CN(C4CCC(=O)NC4=O)C5=O)c(Cl)cc23)CC1` (stereo not shown) [Compound 30, 3-(2-(2-(2-(6-chloro-8-fluoro-4-(4-propionylpiperazin-1-yl)quinazolin-7-yl)-3-fluorophenoxy)ethoxy)ethoxy)-N-(2-((2-(2,6-dioxopiperidin-3-yl)-1-oxoisoindolin-4-yl)amino)ethyl)propanamide]: the viability at 10 µM is no less than 50%.

With `CC(=O)N1CCN(c2ncnc3c(F)c(-c4c(F)cccc4OCCOCCOCCOCCNc4cccc5c4C(=O)N(C4CCC(=O)NC4=O)C5=O)c(Cl)cc23)CC1` (stereo not shown) [Compound 31, 4-((2-(2-(2-(2-(2-(4-(4-Acetylpiperazin-1-yl)-6-chloro-8-fluoroquinazolin-7-yl)-3-fluorophenoxy)ethoxy)ethoxy)ethoxy)ethyl)amino)-2-(2,6-dioxopiperidin-3-yl)isoindoline-1,3-dione], the viability at 10 µM is no less than 50%.

With `NC(=O)N1CCN(c2ncnc3c(F)c(-c4c(F)cccc4OCCOCCOCCOCCNc4cccc5c4C(=O)N(C4CCC(=O)NC4=O)C5=O)c(Cl)cc23)CC1` (stereo not shown) [Compound 32, 4-(6-Chloro-7-(2-(2-(2-(2-(2-((2-(2,6-dioxopiperidin-3-yl)-1,3-dioxoisoindolin-4-yl)amino)ethoxy)ethoxy)ethoxy)ethoxy)-6-fluorophenyl)-8-fluoroquinazolin-4-yl)piperazine-1-carboxamide], the viability at 10 µM is no less than 50%.

Consider `CCC(=O)N1CCN(c2ncnc3c(F)c(-c4c(F)cccc4OCCCCCCCCNc4cccc5c4C(=O)N(C4CCC(=O)NC4=O)C5=O)c(Cl)cc23)CC1` (stereo not shown) [Compound 33, 4-((8-(2-(6-Chloro-8-fluoro-4-(4-propionylpiperazin-1-yl)quinazolin-7-yl)-3-fluorophenoxy)octyl)amino)-2-(2,6-dioxopiperidin-3-yl)isoindoline-1,3-dione], for which the viability at 10 µM was in the range of 25 to 50%.

For the compound `C=CC(=O)N1CCN(c2ncnc3c(F)c(-c4c(F)cccc4OCCCCCCCCNc4cccc5c4C(=O)N(C4CCC(=O)NC4=O)C5=O)c(Cl)cc23)CC1` (stereo not shown) [Compound 34, 4-((8-(2-(4-(4-Acryloylpiperazin-1-yl)-6-chloro-8-fluoroquinazolin-7-yl)-3-fluorophenoxy)octyl)amino)-2-(2,6-dioxopiperidin-3-yl)isoindoline-1,3-dione], the viability at 10 µM lay within 10 to 25%.

Take `CCC(=O)N1CC(N2Cc3ccc(-c4cc(O)cc5ccccc45)cc3N(CC(=O)NCCCCCCCN3CCC(c4cc(F)cc5c4CN(C4CCC(=O)NC4=O)C5=O)CC3)C2=O)C1` (stereo not shown) [Compound 35, N-(7-(4-(2-(2,6-Dioxopiperidin-3-yl)-6-fluoro-1-oxoisoindolin-4-yl)piperidin-1-yl)heptyl)-2-(7-(3-hydroxynaphthalen-1-yl)-2-oxo-3-(1-propionylazetidin-3-yl)-3,4-dihydroquinazolin-1(2H)-yl)acetamide]: the viability at 10 µM lay in the range of 10 to 25%.

The next assay deals with H358 cells. Kind of assay: Cell viability assay (CELLTITER-GLO), H358 cells. Format: cell-based. Particulars: Table 4; 3 days. The method, then:
as §1
In Tables 1 and 2, each compound was tested at 10 μM; and in Table 3, each compound was tested at 1 μM. In Tables 1 to 3, the cell viability values as % DMSO are reported as “A,” “B,” “C,” or “D;” where “A” represents a % viability value of less than 10%; “B” represents a % viability value of no less than 10% and less than 25%; “C” represents a % viability value of no less than 25% and less than 50%; and “D” represents a % viability value of no less than 50%. Compound A is
as §2
For the compound `C=CC(=O)N1CCN(c2ncnc3c(F)c(-c4cc(OCCOCCOCCC(=O)NCCNc5cccc6c5CN(C5CCC(=O)NC5=O)C6=O)ccc4F)c(Cl)cc23)CC1` [Compound 39, 3-(2-(2-((R)-3-(4-(4-Acryloylpiperazin-1-yl)-6-chloro-8-fluoroquinazolin-7-yl)-4-fluorophenoxy)ethoxy)ethoxy)-N-(2-((2-(2,6-dioxopiperidin-3-yl)-1-oxoisoindolin-4-yl)amino)ethyl)propanamide], the “Inhibition of H358 cells, IC50 (class)” value was “D′”.

Turning to `C=CC(=O)N1CCN(c2nc(OCCOCCOCCOCCNc3cccc4c3C(=O)N(C3CCC(=O)NC3=O)C4=O)nc3c2CCN(c2cccc4ccccc24)C3)C[C@H]1C` (stereo partly drawn) [Compound 47, 4-((2-(2-(2-(2-((4-((R)-4-Acryloyl-3-methylpiperazin-1-yl)-7-(naphthalen-1-yl)-5,6,7,8-tetrahydropyrido[3,4-d]pyrimidin-2-yl)oxy)ethoxy)ethoxy)ethoxy)ethyl)amino)-2-(2,6-dioxopiperidin-3-yl)isoindoline-1,3-dione], the “Inhibition of H358 cells, IC50 (class)” value was “C′”.
